As usually defined, the Cmax is the maximum level reached in the sampled fluid or tissue. In general, Tmax refers to the time at which the peak concentration occurs. Broadly, the t½ is the time needed for the level to fall by half in the phase considered. A lower t½ goes with fast loss. Broadly, the bioavailability is dose-corrected exposure relative to a reference, in per cent. For orientation: Vdss means a proportionality between amount in the body and measured concentration, not a real space. What is called clearance is the volume of plasma or blood freed of the substance per unit of time. One may read the Vd as a proportionality between amount in the body and measured concentration, not a real space. The low end stands for confinement near the circulation, the high end for extensive tissue distribution.

Where “and” joins values, the source holds several entries; their conditions need not be identical. Identical values can stand only once. Like-named read-outs stand apart in the source and are kept apart here.

The test system of one data set is males with ADHD. The data set can be described thus: Combined pharmacokinetic/pharmacodynamic study of dose regimens of methylphenidate on activity and attention (OPTAX measures). The data set is classed as in vivo, human. The following applies: pulsatile dosing schedule 2 (PD2): 0.4, 0.4, 0.2 mg/kg at 0, 240, 480 min; compared with CD1, CD2, PD1; twelve-hour day. An excerpt: Combined pharmacokinetic/pharmacodynamic studies of methylphenidate using different dosage regiments were designed to determine if regimens that produced stable or rising methylphenidate levels had benefits, or if fluctuating levels were necessary to prevent rapid development of tolerance (tachyphylaxis). The experimental subjects were a group of seventy-three males with ADHD recruited from the general population through a newspaper advertisement. Each subject was between the ages of 9 to 12, was objectively hyperactive, and responded positively to methylphenidate. Hyperactivity levels of each boy were determined through OPTAX™ measures, a clinical tool that provides high-resolution assessment of movement patterns during performance of a novel, monotonous, yet challenging cognitive vigilance task. Through the OPTAX™ measures, it is possible to identify differences between drug regimens based solely on dosage schedule, while holding total daily dose constant. Of the 73 original boys, thirteen were excluded based on lack of symptoms by parent interview or on lack of objective hyperactivity greater than 25% over controls on OPTAX™ measures. […]
The double blind parallel group study evaluated the efficacy of methylphenidate for the treatment of ADHD when given in a near continuous amount throughout the day and in pulsatile or fluctuating doses throughout the day. […]

The conditions of data set [1]: cited from earlier work.
The nature of data set [2]: Pharmacokinetics of d-threo and l-threo methylphenidate in plasma after oral administration of 40 mg immediate release racemic methylphenidate. The data set is classed as in vivo, human. The following applies: for fraction metabolized / bioavailability: after oral administration of commercially available racemic methylphenidate; for Cmax / Tmax / t½ / bioavailability / half-life: plasma; for Cmax / Tmax / t½ / half-life: oral 40 mg immediate release methylphenidate; for bioavailability: read-out: bioavailability in blood plasma; for half-life: read-out: t½ (converted).

Data set [3] in a line: Pharmacokinetics of d-threo and l-threo methylphenidate in plasma after intravenous administration of 10 mg racemic methylphenidate. The following applies: for CL / MRT / Vdss / t½ / clearance / Vd / half-life: plasma, IV 10 mg racemic methylphenidate; for clearance / Vd / half-life: male, human, iv, 10 mg; for clearance: CL; for Vd: Vdss; for half-life: t½; for plasma levels of d-MPH versus l-MPH: methylphenidate administered intravenously, up to 1.5 hours post dose. The protocol: Eleven healthy male subjects were administered 10 mg of racemic methylphenidate (Ritalin®) by intravenous (IV) administration and 40 mg of racemic methylphenidate (Ritalin®) by immediate release (IR) oral administration.

The mark [4] stands for this setting: racemic d,l-threo methylphenidate.
The mark [5] stands for this setting: individual subjects 1-11, listed as d.
[6] abbreviates: male, human, po, 40 mg, mean of 11 subjects, read-out: Cmax.
Where [7] appears, read: male, human, po, 40 mg, mean of 11 subjects, read-out: Tmax.
Setting [8] is: male, human, po, 40 mg, mean of 11 subjects.
Where [9] appears, read: individual subjects 1-11, listed as l.

On to `COC(=O)C(c1ccccc1)C1CCCCN1` (racemic) [methylphenidate, α-phenyl-2-piperidine-acetic acid methyl ester], for which, in the data set on males with ADHD, the improvement in activity result was “most consistent improvement” and the improvement in attention entry was “most consistent improvement”. Further, the “time of maximum drug concentration” value in data set [1] (after oral administration) is given as “about two”. For the same compound, in data set [1] (setting [4]), the duration of action entry is “one to four” and the pharmacokinetic elimination half-life result is on record as “two to three”.
As for `COC(=O)[C@H](c1ccccc1)[C@H]1CCCCN1` [d-MPH, d-threo-methylphenidate], the fraction metabolized result in data set [2] is “approximately 78%”. In data set [2] (setting [5]), the Cmax was 12.42 ng/mL and 16.49 ng/mL and 13.81 ng/mL and 22.02 ng/mL and 18.52 ng/mL and 24.54 ng/mL and 22.48 ng/mL and 18.25 ng/mL and 22.91 ng/mL and 13.24 ng/mL; the Tmax was 2.0 h and 3.0 h and 1.0 h and 4.0 h; the t½ was 5.44 h and 6.67 h and 4.44 h and 5.83 h and 4.14 h and 6.22 h and 4.81 h and 6.31 h and 6.09 h and 5.29 h and 8.38 h. The bioavailability in data set [2] (male, human, 40 mg) is around 22%. Besides, the Cmax in data set [2] (male, human, po, 40 mg, individual subjects 1-11, read-out: Cmax) amounted to 14.7 ng/mL. Also, the maximum concentration (Cmax) in data set [2] (setting [6]) turned out to be 18.1 ng/mL. In addition, the Tmax in data set [2] (setting [7]) is 2.4 h. For the same compound, the half-life in data set [2] (setting [8]) was 5.69 h. Further, in data set [3] (setting [5]), the CL is 0.32 L/kg · h^−1 and 0.45 L/kg · h^−1 and 0.33 L/kg · h^−1 and 0.28 L/kg · h^−1 and 0.53 L/kg · h^−1 and 0.20 L/kg · h^−1 and 0.63 L/kg · h^−1 and 0.34 L/kg · h^−1 and 0.44 L/kg · h^−1 and 0.41 L/kg · h^−1 and 0.42 L/kg · h^−1; the MRT is 6.49 H and 4.63 H and 5.23 H and 5.75 H and 6.25 H and 4.68 H and 6.79 H and 5.86 H and 7.90 H and 9.44 H and 8.80 H; the Vdss is 2.09 L/kg and 2.10 L/kg and 1.73 L/kg and 1.59 L/kg and 3.28 L/kg and 0.92 L/kg and 4.27 L/kg and 2.01 L/kg and 3.51 L/kg and 3.91 L/kg and 3.68 L/kg; the t½ was 4.88 h and 4.81 h and 4.17 h and 5.38 h and 6.65 h and 3.97 h and 6.93 h and 4.65 h and 6.80 h and 8.68 h and 8.62 h. In data set [3] (mean of 11 subjects), this compound gave a clearance of 6.67 mL/min/kg, a volume of distribution (Vd) of 2.65 L/kg, a half-life of 5.96 h and an MRT of 6.53 H. In addition, the “plasma levels of d-MPH versus l-MPH” value in data set [3] is “approximately equivalent plasma levels”.
Take `COC(=O)[C@@H](c1ccccc1)[C@@H]1CCCCN1` [l-MPH, l-threo methylphenidate]: the fraction metabolized entry in data set [2] is recorded as “approximately 95%”. Further, in data set [2] (setting [9]), the Cmax is 4.23 ng/mL and 2.49 ng/mL and 3.26 ng/mL and 1.59 ng/mL and 3.61 ng/mL and 1.49 ng/mL and 2.88 ng/mL and 4.01 ng/mL and 2.27 ng/mL and 3.03 ng/mL and 3.95 ng/mL; the time to peak (Tmax) was 2.0 h and 3.0 h and 1.0 h and 1.5 h and 4.0 h; the t½ is 4.61 h and 2.48 h and 4.06 h and 3.80 h and 3.09 h and 3.91 h and 4.24 h and 3.84 h and 3.55 h and 4.23 h and 5.41 h. For the same compound, the bioavailability in data set [2] (male, human, 40 mg) is 5%. Moreover, the maximum concentration (Cmax) in data set [2] (setting [6]) turned out to be 2.98 ng/mL. Moreover, in data set [2] (setting [7]), the Tmax was found to be 2.2 h. Moreover, the half-life in data set [2] (setting [8]) was 3.93 h. Moreover, in data set [3] (setting [9]), the CL was 0.56 L/kg · h^−1 and 0.82 L/kg · h^−1 and 0.59 L/kg · h^−1 and 0.41 L/kg · h^−1 and 1.05 L/kg · h^−1 and 0.26 L/kg · h^−1 and 0.89 L/kg · h^−1 and 0.49 L/kg · h^−1 and 0.78 L/kg · h^−1 and 1.11 L/kg · h^−1 and 1.02 L/kg · h^−1; the MRT is 2.28 H and 2.02 H and 2.37 H and 2.63 H and 2.12 H and 2.50 H and 3.34 H and 1.42 H and 3.03 H and 2.84 H; the distribution volume (Vdss) is 1.27 L/kg and 1.86 L/kg and 1.19 L/kg and 0.97 L/kg and 2.77 L/kg and 0.56 L/kg and 2.23 L/kg and 1.63 L/kg and 1.03 L/kg and 3.36 L/kg and 2.89 L/kg; the t½ is 2.08 h and 4.19 h and 2.63 h and 3.57 h and 5.11 h and 2.93 h and 2.21 h and 3.47 h and 4.06 h and 5.23 h. In data set [3] (mean of 11 subjects), this compound had a clearance of 12.2 mL/min/kg, a distribution volume (Vd) of 1.8 L/kg, a half-life of 3.61 h and an MRT of 2.44 H. Besides, the “plasma levels of d-MPH versus l-MPH” value in data set [3] is “approximately equivalent plasma levels”.

The values are drawn from US20030170181A1, “Method for preventing abuse of methylphenidate” (priority 1999, published 2003).
